# Results taken from patent US12448382B2, “Heterocyclic compounds for mediating tyrosine kinase 2 activity” (GUANGZHOU INNOCARE PHARMA TECH CO., LTD., priority 2019, dated 2025).
# Where two headings read alike, the source gives them in different places.
# Key:
# [1] = test system: IL-12-induced IFN-γ secretion in NK92 cells; assay: Inhibition of IL-12-induced IFN-γ Secretion in NK92 Cells (ELISA); format: cell-based, human; conditions: 24 hours incubation, 8 concentration points, read-out: IC50 (NK92_IL12/IFNγ)
# Summary of the method: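 NK92 cells (100,000/well, IL-2-free medium) rested overnight, then treated with compound plus IL-12 for 24 h at 37 °C. Secreted IFN-γ measured in supernatant by ELISA. Inhibition normalized to unstimulated and IL-12/0.2% DMSO controls; IC50 fitted from 8 concentrations.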
# [2] = molecular target: T1, human recombinant TYK2 protein (Homo sapiens, UniProt P29597); assay: TYK2 Inhibition Assay (HTRF kinase assay); format: biochemical; conditions: human recombinant TYK2, 11.25 μM ATP substrate solution
# T1 construct: purchased Carna Biosciences 08-147
# T1 sequence (P29597 871-1187 limits assumed): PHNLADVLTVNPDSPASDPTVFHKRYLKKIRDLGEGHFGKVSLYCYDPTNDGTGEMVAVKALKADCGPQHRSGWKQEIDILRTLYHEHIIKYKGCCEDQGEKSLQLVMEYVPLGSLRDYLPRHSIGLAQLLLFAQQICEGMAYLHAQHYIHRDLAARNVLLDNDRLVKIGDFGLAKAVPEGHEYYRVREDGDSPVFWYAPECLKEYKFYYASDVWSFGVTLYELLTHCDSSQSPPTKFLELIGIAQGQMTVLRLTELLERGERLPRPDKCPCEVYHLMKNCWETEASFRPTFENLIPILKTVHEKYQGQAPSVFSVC
# Summary of the method: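 Recombinant human TYK2 was pre-incubated 15 min at room temperature with compound, then reacted for 40 min with biotinylated tyrosine-kinase substrate and ATP (substrate solution 11.25 μM ATP, 0.5 μM substrate; 5 mM MgCl2, 0.01% Brij35). Phosphorylation was read by HTRF 665/620 ratio, normalised to no-enzyme and no-compound controls, and IC50 was fitted from 8 4-fold dilutions.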
# [3] = molecular target: T2, human recombinant JAK2 protein (Homo sapiens, UniProt O60674); assay: JAK2 Inhibition Assay (HTRF kinase assay); format: biochemical; conditions: human recombinant JAK2, 2.5 μM ATP substrate solution
# T2 construct: purchased Carna Biosciences 08-045
# Summary of the method: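 Recombinant human JAK2 was preincubated 15 min at room temperature with compound in buffer containing 5 mM MgCl2, 1 mM DTT and 0.01% Brij35. Substrate solution (2.5 μM ATP, 0.25 μM biotinylated TK substrate) was then added for 30 min. Phosphorylation was detected by HTRF (665/620 nm ratio; no-enzyme = 100% inhibition), and IC50 was fitted from an 8-point, 4-fold series.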
# T2 sequence (O60674 826-1132 limits assumed): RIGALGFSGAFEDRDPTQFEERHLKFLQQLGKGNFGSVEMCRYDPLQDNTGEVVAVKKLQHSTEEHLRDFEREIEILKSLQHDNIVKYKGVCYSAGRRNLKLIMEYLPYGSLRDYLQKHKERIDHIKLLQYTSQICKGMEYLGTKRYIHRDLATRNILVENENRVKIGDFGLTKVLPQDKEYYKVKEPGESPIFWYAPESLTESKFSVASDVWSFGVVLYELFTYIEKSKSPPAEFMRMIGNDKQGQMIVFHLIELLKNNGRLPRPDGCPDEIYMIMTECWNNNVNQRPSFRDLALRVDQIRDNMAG
compound,measurement,setting,value
"Cc1cnc(Nc2cnn(C)c2)nc1N1C[C@]2(C)CN(C(=O)CC(F)(F)F)C[C@]2(C)C1 [Compound 60, 1-((3aR.,6aS)-3a,6a-dimethyl-5-(5-methyl-2-((1-methyl-1H-pyrazol-4-yl)amino)pyrimidin-4-yl)hexahydropyrrolo[3,4-c]pyrrol-2(1H)-yl)-3,3,3-trifluoropropan-1-one]",IC50,[1]; Homo sapiens,1380 nM
same,IC50,[2],2.2 nM
same,IC50,[3],5.9 nM
Cn1cc(Nc2ncc(Cl)c(N3C[C@]4(C)CN(c5ccno5)C[C@]4(C)C3)n2)cn1 [Compound 66],IC50,[1]; Homo sapiens,66 nM
same,IC50,[2],0.2 nM
same,IC50,[3],0.3 nM
"Cc1cc(CN2C[C@@]3(C)CN(c4nc(Nc5cnn(C)c5)ncc4Cl)C[C@@]3(C)C2)on1 [Compound 78, 5-chloro-4-((3aR,6aS)-3a,6a-dimethyl-5-((3-methylisoxazol-5-yl)methyl)hexahydropyrrolo[3,4-c]pyrrol-2(1H)-yl)-N-(1-methyl-1H-pyrazol-4-yl)pyrimidin-2-amine]",IC50,[1]; Homo sapiens,2760 nM
same,IC50,[2],4.2 nM
same,IC50,[3],7.6 nM
"Cn1cc(Nc2ncc(Cl)c(N3C[C@]4(C)CN(Cc5cn[nH]c5)C[C@]4(C)C3)n2)cn1 [Compound 79, 4-((3aR,6aS)-5-((1H-pyrazol-4-yl)methyl)-3a,6a-dimethylhexahydropyrrolo[3,4-c]pyrrol-2(1H)-yl)-5-chloro-N-(1-methyl-1H-pyrazol-4-yl)pyrimidin-2-amine]",IC50,[1]; Homo sapiens,3970 nM
same,IC50,[2],51 nM
same,IC50,[3],40 nM
"Cc1ncc(CN2C[C@@]3(C)CN(c4nc(Nc5cnn(C)c5)ncc4Cl)C[C@@]3(C)C2)o1 [Compound 80, 5-chloro-4-((3aR,6aS)-3a,6a-dimethyl-5-((2-methyloxazol-5-yl)methyl)hexahydropyrrolo[3,4-c]pyrrol-2(1H)-yl)-N-(1-methyl-1H-pyrazol-4-yl)pyrimidin-2-amine]",IC50,[1]; Homo sapiens,4090 nM
same,IC50,[2],19 nM
same,IC50,[3],16 nM
"Cn1cc(Nc2ncc(Cl)c(N3C[C@]4(C)CN(Cc5cc[nH]n5)C[C@]4(C)C3)n2)cn1 [Compound 81, 4-((3aR,6aS)-5-((1H-pyrazol-3-yl)methyl)-3a,6a-dimethylhexahydropyrrolo[3,4-c]pyrrol-2(1H)-yl)-5-chloro-N-(1-methyl-1H-pyrazol-4-yl)pyrimidin-2-amine]",IC50,[1]; Homo sapiens,3970 nM
same,IC50,[2],50 nM
same,IC50,[3],16 nM
"Cc1noc(CN2C[C@@]3(C)CN(c4nc(Nc5cnn(C)c5)ncc4Cl)C[C@@]3(C)C2)n1 [Compound 82, 5-chloro-4-((3aR,6aS)-3a,6a-dimethyl-5-((3-methyl-1,2,4-oxadiazol-5-yl)methyl)hexahydropyrrolo[3,4-c]pyrrol-2(1H)-yl)-N-(1-methyl-1H-pyrazol-4-yl)pyrimidin-2-amine]",IC50,[1]; Homo sapiens,2870 nM
same,IC50,[2],16 nM
same,IC50,[3],14 nM
"Cc1nnc(N2C[C@@]3(C)CN(c4nc(Nc5cnn(C)c5)ncc4Cl)C[C@@]3(C)C2)o1 [Compound 83, 5-chloro-4-((3aR,6aS)-3a,6a-dimethyl-5-(5-methyl-1,3,4-oxadiazol-2-yl)hexahydropyrrolo[3,4-c]pyrrol-2(1H)-yl)-N-(1-methyl-1H-pyrazol-4-yl)pyrimidin-2-amine]",IC50,[1]; Homo sapiens,4550 nM
same,IC50,[2],7.4 nM
same,IC50,[3],13 nM
"Cn1cc(Nc2ncc(Cl)c(N3C[C@]4(C)CN(CC5CC5)C[C@]4(C)C3)n2)cn1 [Compound 84, 5-chloro-4-((3aR,6aS)-5-(cyyclopropylmethyl)-3a,6a-dimethylhexahydropyrrolo[3,4-c]pyrrol-2(1H)-yl)-N-(1-methyl-1H-pyrazol-4-yl)pyrimidin-2-amine]",IC50,[1]; Homo sapiens,8750 nM
same,IC50,[2],186 nM
same,IC50,[3],477 nM
"Cn1cc(Nc2ncc(Cl)c(N3C[C@]4(C)CN(CC#N)C[C@]4(C)C3)n2)cn1 [Compound 85, 2-((3aR,6aS)-5-(5-chloro-2-((1-methyl-1H-pyrazol-4-yl)amino)pyrimidin-4-yl)-3a,6a-dimethylhexahydropyrrolo[3,4-c]pyrrol-2(1H)-yl)acetonitrile]",IC50,[1]; Homo sapiens,5350 nM
same,IC50,[2],2.4 nM
same,IC50,[3],1.7 nM
"Cn1cc(Nc2ncc(Cl)c(N3C[C@@H]4CN(C(=O)C5CC5)C[C@]4(C)C3)n2)cn1 [Compound 86, ((3aS,6aR)-5-(5-chloro-2-((1-methyl-1H-pyrazol-4-yl)amino)pyrimidin-4-yl)-3a-methylhexahydropyrrolo[3,4-c]pyrrol-2(1H)-yl)(cyclopropyl)methanone]",IC50,[1]; Homo sapiens,99 nM
same,IC50,[2],0.3 nM
same,IC50,[3],1.7 nM
"Cn1cc(Nc2ncc(Cl)c(N3C[C@H]4CN(C(=O)C5CC5)C[C@@]4(C)C3)n2)cn1 [Compound 87, ((3aR,6aS)-5-(5-chloro-2-((1-methyl-1H-pyrazol-4-yl)amino)pyrimidin-4-yl)-3a-methylhexahydropyrrolo[3,4-c]pyrrol-2(1H)-yl)(cyclopropyl)methanone]",IC50,[1]; Homo sapiens,959 nM
same,IC50,[2],6 nM
same,IC50,[3],9 nM
"Cn1cc(Nc2ncc(Cl)c(N3C[C@@H]4CN(C(=O)CC#N)C[C@]4(C)C3)n2)cn1 [Compound 88, 3-((3aS,6aR)-5-(5-chloro-2-((1-methyl-1H-pyrazol-4-yl)amino)pyrimidin-4-yl)-3a-methylhexahydropyrrolo[3,4-c]pyrrol-2(1H)-yl)-3-oxopropanenitrile]",IC50,[1]; Homo sapiens,67 nM
same,IC50,[2],0.2 nM
same,IC50,[3],0.5 nM
"Cn1cc(Nc2ncc(Cl)c(N3C[C@H]4CN(C(=O)CC#N)C[C@@]4(C)C3)n2)cn1 [Compound 89, 3-((3aR,6aS)-5-(5-chloro-2-((1-methyl-1H-pyrazol-4-yl)amino)pyrimidin-4-yl)-3a-methylhexahydropyrrolo[3,4-c]pyrrol-2(1H)-yl)-3-oxopropanenitrile]",IC50,[1]; Homo sapiens,729 nM
same,IC50,[2],2.6 nM
same,IC50,[3],4.5 nM
Cn1cc(Nc2ncc(Cl)c(N3C[C@@H]4CN(C(=O)[C@@H]5CC5(F)F)C[C@]4(C)C3)n2)cn1 [Compound 90],IC50,[1]; Homo sapiens,96 nM
same,IC50,[2],0.1 nM
same,IC50,[3],0.6 nM
"Cn1cc(Nc2ncc(Cl)c(N3C[C@H]4CN(C(=O)[C@@H]5CC5(F)F)C[C@@]4(C)C3)n2)cn1 [Compound 91, ((3aR,6aS)-5-(5-chloro-2-((1-methyl-1H-pyrazol-4-yl)amino)pyrimidin-4-yl)-3a-methylhexahydropyrrolo[3,4-c]pyrrol-2(1H)-yl)((S)-2,2-difluorocyclopropyl)methanone]",IC50,[1]; Homo sapiens,388 nM
same,IC50,[2],3.2 nM
same,IC50,[3],2.6 nM
"C[C@@]12CN(C(=O)C3CC3)C[C@]1(C)CN(c1nc(Nc3cc[nH]n3)ncc1Cl)C2 [Compound 95, ((3aR,6aS)-5-(2-((1H-pyrazol-3-yl)amino)-5-chloropyrimidin-4-yl)-3a,6a-dimethylhexahydropyrrolo-[3,4-c]pyrrol-2(1H)-yl)(cyclopropyl)methanone]",IC50,[1]; Homo sapiens,5850 nM
same,IC50,[2],42 nM
same,IC50,[3],19 nM
"C[C@]12CN(C(=O)CC#N)C[C@H]1CN(c1nc(Nc3cn[nH]c3)ncc1Cl)C2 [Compound 98, 3-((3aS,6aR)-5-(2-((1H-pyrazol-4-yl)amino)-5-chloropyrimidin-4-yl)-3a-methylhexahydropyrrolo[3,4-c]pyrrol-2(1H)-yl)-3-oxopropanenitrile]",IC50,[1]; Homo sapiens,516 nM
same,IC50,[2],0.1 nM
same,IC50,[3],0.7 nM
"[2H]C([2H])([2H])n1cc(Nc2ncc(Cl)c(N3C[C@@H]4CN(C(=O)CC#N)C[C@]4(C)C3)n2)cn1 [Compound 99, 3-((3aS,6aR)-5-(5-chloro-2-((1-(methyl-d3)-1H-pyrazol-4-yl)amino)pyrimidin-4-yl)-3a-methylhexahydropyrrolo[3,4-c]pyrrol-2(1H)-yl)-3-oxopropanenitrile]",IC50,[1]; Homo sapiens,158 nM
same,IC50,[2],0.1 nM
same,IC50,[3],0.5 nM
"cyclopropyl((3aR,6aS)-3a,6a-dimethyl-5-(5-methyl-2((1-methyl-1H-pyrazol-4-yl)amino)pyriraidin-4-yl)hexahydropyrrolo[3,4-c]pyrrol-2(1H)-yl)methanone [Compound 24]",IC50,[1],1070 nM
same,IC50,[2],4.1 nM
same,IC50,[3],20 nM
